Experimental findings from a melting point compilation (Tetko et al.; mined from patent text by program, amines drawn as free bases though some values may be those of a salt) are described below.

By melting point is commonly meant the temperature of the solid-liquid transition. `COC(=O)c1ccc2[nH]c(C(=O)OCc3ccccc3)cc2c1` had a melting point of 128 to 129 °C.
Consider `COCCCNc1ccc(S(N)(=O)=O)cn1`, for which the melting point was 129 to 132 °C.
As for `FC(F)(F)c1ccc(-n2nnnc2Nc2ccc(C(F)(F)F)cc2Cl)cc1`, the melting point amounted to 116 °C.
`Cc1c(C(=O)c2ccccc2F)n(N2C(=O)c3ccccc3C2=O)c2ccccc12` came in with a melting point of 197 to 199 °C.
Then `CCCN(C(=O)OC(C)(C)C)C1CC=C(c2c[nH]c3cc([N+](=O)[O-])ccc23)CC1` (stereo not given), with 214 to 216 °C; and `CCOC(=O)C(=O)Nc1cc2c3c(cccc3c1)C(=O)OC2=O`, with 275 to 276 °C; and `O=C(O)c1c2c(nc3ccc(F)cc13)-c1ccc(-c3cccs3)cc1CCC2`, with more than 300 °C.
Then `CC(O)c1cn(C2CCc3c(F)cc(F)cc3C2)c(=S)[nH]1` (stereo not given), with 210 to 211 °C; and `CN(C)c1cc(-c2c[nH]cn2)ccn1`, with 173 to 174 °C.
Then `O=C1CCC(c2ccccc2)(c2ccccc2)[C@@H]2CN(C(=O)Cc3c(Cl)cccc3Cl)C[C@H]12` (racemic), with 201 °C; and `N#CCc1ccc(-c2coc3cc(O)c(O)cc3c2=O)cc1`, with 258 to 260 °C.
In the case of `CCc1nnc(C2=C(OC(=O)c3ccccc3)c3ccccc3S(=O)(=O)N2C)o1`, the melting point was 191 to 192 °C.
Then `Cc1cc2c(o1)c(-c1ccc(COC(=O)CCC(=O)O)o1)nn2Cc1ccccc1`, with 126 to 129 °C; and `O=C1NC(=O)C2c3c([nH]c4ccc(Cl)cc34)-c3[nH]c4ccc(Cl)cc4c3C12` (stereo not given), with more than 300 °C; and `O=C1CCCCc2ccc(N3C[C@H](CO)OC3=O)cc21`, with 144 to 146 °C.
Then `CSCCCn1cc(C(=O)NCc2ccc(Cl)cc2)c(=O)c2cc(CN3CCOCC3)ccc21`, with 102 to 104 °C; and `CS(=O)(=O)n1c(=NC(F)(F)F)oc2ccccc21`, with 142 to 146 °C; and `O=C(N1CCN(c2ccncc2Cl)CC1)N1CCN(S(=O)(=O)c2ccc(F)cc2)CC1`, with 143 to 144 °C.
Then `CS(=O)(=O)c1ccc(-c2cc(CO)nn2CC2CCCCC2)cc1`, with 104 °C; and `CONS(=O)(=O)c1ccccc1S(=O)(=O)NC(=O)Nc1nc(C)cc(C)n1`, with 218 to 219 °C.
In the case of `N=C(N)c1ccc(C(=O)N[C@@H](Cc2cc(I)c(O)c(I)c2)C(=O)N2CCC(OCC(=O)O)CC2)cc1`, the melting point was in the range of 220 to 221 °C.
In turn, `Cc1cn(C(C)(C)C(=O)N(C)C)nc1-c1ccccc1F` gave a melting point of 112 to 114 °C.
Then `Cc1cccc(C(=O)C(=O)c2ccccc2)c1C`, with 61.5 to 62.5 °C; and `CCOC(=O)Nc1c(F)cc(Cl)c2nc(C(C)(C)C)oc12`, with 127 to 129 °C; and `CCOc1ccccc1-c1nc2c(C)nn(C)c2c(=O)[nH]1`, with 201 to 204 °C.
For `N#Cc1c[nH]cc1-c1ccc(Cl)cc1C(=O)c1ccccc1F`, the melting point lay within 177 to 179 °C.
Then `CCSc1ccc(C(=O)O)nc1SCC`, with 112 to 113 °C; and `CC(C)NC(=S)n1ccc2cc(Cl)ccc21`, with 135 °C.
Then `Nc1nc(/C(=N/OC23CC4CC(CC(C4)C2)C3)C(=O)O)cs1`, with 203 to 204 °C.
Then `Nc1cccn2nc(SCc3ccccc3)nc12`, with 116 to 117 °C; and `COc1cc(Nc2nccc(Nc3ccc(N4CCOCC4)cc3)n2)cc(OC)c1OC`, with 214 °C; and `Cc1ccc2c3[nH]nc(Cc4ccccc4)c3c(=O)n(-c3ccccc3)c2n1`, with 300 to 302 °C.
As for `N#Cc1cc(NC(=O)c2cc3ccccc3s2)ccc1N1CCC(N2CCCCC2)CC1`, the melting point stood at 275 °C.
Then `CN1C(=O)COc2cc3c(cc21)C1(CO3)C(=O)N(CC2CCCO2)c2ccccc21` (stereo not given), with 79 to 81 °C; and `CCCC1=C(C(=O)OCC)C(c2cccc(C(F)(F)F)c2Cl)c2c[nH]nc2N1` (stereo not given), with 236 to 238 °C; and `COC(=O)c1sc(C)c(Br)c1OC(=S)N(C)C`, with 152 to 154 °C.
In turn, `CC(=O)NC[C@H]1CN(c2ccc(N3CCC(Cc4nnn[nH]4)CC3)c(F)c2)C(=O)O1` had a melting point of 164 to 166 °C.
As for `N#Cc1c(-c2ccc(N)cc2)cc(-c2ccccc2O)nc1NC(=O)c1cccs1`, the melting point was 292 to 293 °C.
For `CC(O)COC(c1c(C(C)C)nn2ccccc12)C(C)C` (stereo not given), the melting point turned out to be 112 °C.
Then `Brc1cncc(-c2ccccc2)c1`, with 42 to 44 °C; and `CC1(CNC(=O)OC(C)(C)C)CN(c2cccc(Cl)n2)C1`, with 108 to 111 °C.
`CC(=O)n1cc(Cl)c(-c2cccc3c2OC(F)(F)O3)n1` came in with a melting point of 131 °C.
In turn, `CS(=O)(=O)c1ccc(Oc2cc(OCc3ccccc3)c3[nH]c(C4=NCC(CC(=O)O)S4)cc3c2)cc1` (stereo not given) came in with a melting point of 218 to 219 °C.
Then `CCOC(CNC(=S)Nc1ccnn1C)OCC`, with 148 to 149 °C; and `NC(=NO)c1nc(Cl)c(-c2c(F)cccc2Cl)c(Cl)c1Br`, with 132 °C; and `Cc1noc(NC(=O)N2CCN(c3nccc(-c4c(F)cccc4F)n3)CC2)c1C`, with 189 to 190 °C.
The compound `CC(C)(C(=O)O)C(=O)NCc1cn(C(c2ccccc2)(c2ccccc2)c2ccccc2)cn1` registered a melting point of 174 to 175 °C.
The compound `CCOC(=O)CNC(=O)COc1ccc(CCl)cc1` had a melting point of 88.5 to 90.5 °C.
As to `CC1CCc2c(c3cc(Br)ccc3n2C(=O)OC(C)(C)C)C1` (stereo not given), the melting point turned out to be 122 °C.
Compound `COCC(=O)NCc1cccc2c1C(=O)N(C1CCC(=O)NC1=O)C2=O` (stereo not given) showed a melting point of 196 to 198 °C.
`Cc1noc(C(=O)NC(C)C)c1C(=O)O`: the melting point was in the range of 86 to 92 °C.
On to `COc1nccc2c1COC2=O`, for which the melting point amounted to 90 °C.
Then `CC[C@@H](C(=O)O)n1ccc2ccc(Cl)cc2c1=O`, with 160 °C.
Then `COC1(C)CN(c2ccc([N+](=O)[O-])cc2F)C1`, with 110 to 111 °C.
For `CCc1ccc2c(c1)c(-c1ccccc1Cl)c(NC(=O)Nc1c(C)cccc1C(C)C)c(=O)n2C`, the melting point fell in the range of 198 to 199 °C.
Consider `COc1ccc(OC)c(-c2cc(F)cc3c2OC(CN)C3)c1` (stereo not given), for which the melting point lay within 120 to 122 °C.
`Cc1cc(-n2ccnc2)ccc1N` came in with a melting point of 131 to 134 °C.
Then `CCCc1ccc(S(=O)(=O)c2ccccc2)cc1`, with 83 to 85 °C; and `O=C(NCc1ccc(Cl)cc1)c1ccc2cnccc2n1`, with 110 to 111 °C.
Then `C=CCOC1(C(F)(F)F)CN(C2CC2)C(=O)Nc2ccc(Cl)cc21` (stereo not given), with 120 to 121 °C; and `CSc1nnc(C(F)(F)F)n1C`, with 46 °C.
Then `C=CCNC(=O)c1cc(Cl)c2[nH]ncc2n1`, with 121 to 125 °C; and `CC(c1ccc(Cl)c(Cl)c1)n1[nH]c(N)cc1=O` (stereo not given), with 127 to 129 °C.
Take `Cc1cc2c(s1)Nc1ccccc1N=C2N1CCN(C)[C@@H](CO)C1`: the melting point lay within 118 to 124 °C.
In the case of `O=C1NCCc2ccc(OCCCN3CCCN(c4cccc(Cl)c4Cl)CC3)cc21`, the melting point was in the range of 116 to 117 °C.
In the case of `Brc1ccc2nc(-c3coc4ccccc34)cn2c1`, the melting point was 151 to 153 °C.
With `COc1ccc(-c2ccccc2NC(N)=S)cc1`, the melting point lay within 158 to 159 °C.
Then `Brc1ccccc1CCn1ccccc1=NC(=NC1CCCCC1)NC1CCCCC1`, with 125 to 129 °C.
`Nc1nc2c(c(Nc3ccc(Cl)cc3)n1)-c1ccccc1C2` came in with a melting point of 216 to 217 °C.
The compound `CCOC(=O)C1=C(C)NC(c2scnc2C)=NC1c1ccc(F)cc1Cl` (stereo not given) returned a melting point of 134 to 139 °C.
`COC(=O)c1ncc(Cl)nc1NCc1ccc(OC)c(Cl)c1`: the melting point fell in the range of 149 to 151 °C.
Then `Cc1c2n(c3ccccc13)CCC(Br)C2=O` (stereo not given), with 126 to 128 °C; and `Cc1ccc([N+](=O)[O-])c(OCc2ccccc2)c1`, with 49 to 51 °C; and `Cc1cc(-c2cc(C(F)(F)F)nn2-c2ccc(S(C)(=O)=O)cc2)ccc1-c1cocn1`, with 148 to 150 °C.
Then `CCN(CC)CCNc1ccc(C2C(C(=O)OC)=C(C)NC(C)=C2C(=O)OC)cc1[N+](=O)[O-]`, with 161 °C; and `CCCCCCC(C)(C)c1cc(OC)c(C2=C[C@@H]3CC[C@@]2(CO)C3(C)C)c(OC)c1`, with 49 to 51 °C; and `CCCC(O)P(=O)(O)OCCCN` (stereo not given), with 188 °C.
`CCCc1nnc(C(Cc2ccc(-c3cccc(CN(C)C(=O)c4ccccc4)c3)cc2)Nc2ccccc2C(=O)c2ccccc2)o1` (stereo not given) gave a melting point of 65 °C.
Then `CC1(C)c2ccccc2C(C)(C)C1(S)CC(=O)O`, with 159 to 161 °C; and `CSc1cc2ncnc(Nc3cccc(C)c3)c2cc1[N+](=O)[O-]`, with 230 to 231 °C.
The compound `Cc1c(C#N)cnc(N)c1C#N` displayed a melting point of 222 to 223 °C.
Then `NS(=O)(=O)c1cc(C(=O)O)cc(CCn2cccc2)c1Cl`, with 224 to 228 °C.
Then `COc1ccc(OCC(O)CN2CCC(N3CCNC3=O)CC2)cc1` (stereo not given), with 148 to 150 °C; and `COCC(c1ccccc1)N(C)Cc1c(-c2ccc(NC(=O)NOC)cc2)sc2c1c(=O)n(-c1ccccc1)c(=O)n2Cc1c(F)cccc1F` (stereo not given), with 169 to 172 °C.
`O=[N+]([O-])c1ccc(-n2ncnc2-c2cnccn2)cc1` displayed a melting point of 188 to 189 °C.
Compound `CC1(C)OC(=O)Nc2ccc(-c3coc(C#N)c3)cc21` displayed a melting point of 255 to 256 °C.
Then `CC(=O)NC[C@H]1CN(c2ccc(N3CC(N(C)CCF)C3)c(F)c2)C(=O)O1`, with 126 to 127 °C.
Then `CC1(C)CC(S(=O)(=O)Cc2c(Cl)nn(C(F)F)c2C(F)(F)F)=NO1`, with 136 to 137 °C.
Then `O=C(c1ccn2c1CSC2c1cccnc1)c1cn(CCO)c2cc(-c3ccc(F)cc3)ccc12` (stereo not given), with 170 to 171 °C.
In turn, `CCN1C(=O)C(C)(C)C(=O)N(C)c2cc(OCCCN(CCc3cccnc3)C(=O)c3ccncc3)ccc21` displayed a melting point of 88.1 to 92.2 °C.
